Results taken from EP4722207A1, “OXOISOINDOLINYL-SUBSTITUTED TETRAHYDROPYRIMIDINEDIONE DERIVATIVE AND USE THEREOF” (Gluetacs Therapeutics (Shanghai) Co., Ltd., priority 2023, dated 2024).

How the values were obtained:
MGC803 = test: Cell viability assay (CellTiter-Meiluncell Luminescent), tumor cell proliferation, MGC803; settings: Homo sapiens, MGC-803, 96 h, read-out: inhibitory activity (IC50, nM) against tumor cells proliferation, MGC803
Procedure: (§1) On the following day, the test compounds of the present disclosure were subjected to serial dilution. […] Subsequently, 0.5 µL of the test compound dilution was transferred into the 96-well plate containing the cells, with each well containing 100 µL of cell culture medium. […] Into the 96-well plate, the diluted test compounds and corresponding detection reagents were added, resulting in final test compound concentrations of 500 nM and 10 nM, respectively.
(§2) After the cells were treated with the compounds of the present disclosure for a specified period, the cell viability assay reagent was added to the culture medium according to the kit's instructions to determine cell viability. […] All controls were treated using the same procedure as the compounds of the present disclosure. The growth inhibition curves for the compounds of the present disclosure were plotted using Prism GraphPad software, and the IC50 values were calculated therefrom.

IKZF3 = molecular target: T1, IKZF3 (Homo sapiens, UniProt Q96SW2+Q9UKT9); test: Western-blot assay, substrate protein degradation in hPBMCs: IKZF3; assay type: cell-based; settings: compounds at 50 nM and 500 nM, 24 hours
T1 construct: effects of the compounds of the present disclosure on the expression of target proteins in cells; endogenous in cells; host or cells: human PBMCs (hPBMCs)

IKZF2 = molecular target: T2, IKZF2 (Homo sapiens, UniProt Q96SW2+Q9UKS7); test: Western-blot assay, substrate protein degradation in hPBMCs: IKZF2; assay type: cell-based; settings: compounds at 50 nM and 500 nM, 24 hours
T2 construct: effects of the compounds of the present disclosure on the expression of target proteins in cells; endogenous in cells; host or cells: human PBMCs (hPBMCs)

CK1α = molecular target: T3, CK1α (Homo sapiens, UniProt P48729+Q96SW2); test: Western-blot assay, substrate protein degradation in hPBMCs: CK1α; assay type: cell-based; settings: compounds at 50 nM and 500 nM, 24 hours
T3 construct: effects of the compounds of the present disclosure on the expression of target proteins in cells; endogenous in cells; host or cells: human PBMCs (hPBMCs)

MM.1S = test: Cell viability assay (CellTiter-Meiluncell Luminescent), tumor cell proliferation, MM.1S; settings: Homo sapiens, MM1.S, 96 h, read-out: inhibitory activity (IC50, nM) against tumor cells proliferation, MM.1S
IKZF1 = molecular target: T4, IKZF1 (Homo sapiens, UniProt Q13422+Q96SW2); test: Western-blot assay, substrate protein degradation in hPBMCs: IKZF1; assay type: cell-based; settings: compounds at 50 nM and 500 nM, 24 hours
T4 construct: effects of the compounds of the present disclosure on the expression of target proteins in cells; endogenous in cells; host or cells: human PBMCs (hPBMCs)

Jurkat = test: Cell viability assay (CellTiter-Meiluncell Luminescent), tumor cell proliferation, Jurkat; settings: Homo sapiens, 96 h, read-out: inhibitory activity (IC50, nM) against tumor cells proliferation, Jurkat
Procedure: as §1, §2

WEE1 = molecular target: T5, WEE1 (Homo sapiens, UniProt P30291+Q96SW2); test: Western-blot assay, substrate protein degradation in hPBMCs: WEE1; assay type: cell-based; settings: compounds at 50 nM and 500 nM, 24 hours
T5 construct: effects of the compounds of the present disclosure on the expression of target proteins in cells; endogenous in cells; host or cells: human PBMCs (hPBMCs)

GSPT1 = molecular target: T6, GSPT1 (Homo sapiens, UniProt P15170+Q96SW2); test: Western-blot assay, substrate protein degradation in hPBMCs: GSPT1; assay type: cell-based; settings: compounds at 50 nM and 500 nM, 24 hours
T6 construct: effects of the compounds of the present disclosure on the expression of target proteins in cells; endogenous in cells; host or cells: human PBMCs (hPBMCs)

T1 sequence (Q9UKT9 whole entry): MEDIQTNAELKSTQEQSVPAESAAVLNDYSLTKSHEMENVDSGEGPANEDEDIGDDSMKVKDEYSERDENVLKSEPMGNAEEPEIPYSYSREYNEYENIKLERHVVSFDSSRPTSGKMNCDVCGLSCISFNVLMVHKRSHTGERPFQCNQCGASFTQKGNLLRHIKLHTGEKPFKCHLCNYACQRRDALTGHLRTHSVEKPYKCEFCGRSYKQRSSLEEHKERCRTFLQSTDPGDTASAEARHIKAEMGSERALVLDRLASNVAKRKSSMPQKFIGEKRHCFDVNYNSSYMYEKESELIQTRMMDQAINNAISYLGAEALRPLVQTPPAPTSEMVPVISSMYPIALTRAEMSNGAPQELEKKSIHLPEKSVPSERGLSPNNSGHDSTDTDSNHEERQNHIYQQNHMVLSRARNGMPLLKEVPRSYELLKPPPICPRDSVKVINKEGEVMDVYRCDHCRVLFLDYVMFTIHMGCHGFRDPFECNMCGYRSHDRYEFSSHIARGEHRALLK
T1 sequence (Q96SW2 whole entry): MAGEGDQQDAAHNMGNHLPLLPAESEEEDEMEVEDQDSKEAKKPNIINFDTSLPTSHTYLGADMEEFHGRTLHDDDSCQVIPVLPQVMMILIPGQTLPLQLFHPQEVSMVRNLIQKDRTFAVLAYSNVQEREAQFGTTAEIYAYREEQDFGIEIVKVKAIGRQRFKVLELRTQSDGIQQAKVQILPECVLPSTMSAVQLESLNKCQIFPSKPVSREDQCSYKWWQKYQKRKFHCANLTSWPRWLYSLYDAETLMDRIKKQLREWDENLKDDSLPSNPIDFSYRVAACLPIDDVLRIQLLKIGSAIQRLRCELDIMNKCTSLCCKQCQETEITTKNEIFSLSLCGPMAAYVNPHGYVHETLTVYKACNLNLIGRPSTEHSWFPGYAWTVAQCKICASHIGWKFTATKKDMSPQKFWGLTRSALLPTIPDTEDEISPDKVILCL
T1 sequence (Q16531 whole entry partner): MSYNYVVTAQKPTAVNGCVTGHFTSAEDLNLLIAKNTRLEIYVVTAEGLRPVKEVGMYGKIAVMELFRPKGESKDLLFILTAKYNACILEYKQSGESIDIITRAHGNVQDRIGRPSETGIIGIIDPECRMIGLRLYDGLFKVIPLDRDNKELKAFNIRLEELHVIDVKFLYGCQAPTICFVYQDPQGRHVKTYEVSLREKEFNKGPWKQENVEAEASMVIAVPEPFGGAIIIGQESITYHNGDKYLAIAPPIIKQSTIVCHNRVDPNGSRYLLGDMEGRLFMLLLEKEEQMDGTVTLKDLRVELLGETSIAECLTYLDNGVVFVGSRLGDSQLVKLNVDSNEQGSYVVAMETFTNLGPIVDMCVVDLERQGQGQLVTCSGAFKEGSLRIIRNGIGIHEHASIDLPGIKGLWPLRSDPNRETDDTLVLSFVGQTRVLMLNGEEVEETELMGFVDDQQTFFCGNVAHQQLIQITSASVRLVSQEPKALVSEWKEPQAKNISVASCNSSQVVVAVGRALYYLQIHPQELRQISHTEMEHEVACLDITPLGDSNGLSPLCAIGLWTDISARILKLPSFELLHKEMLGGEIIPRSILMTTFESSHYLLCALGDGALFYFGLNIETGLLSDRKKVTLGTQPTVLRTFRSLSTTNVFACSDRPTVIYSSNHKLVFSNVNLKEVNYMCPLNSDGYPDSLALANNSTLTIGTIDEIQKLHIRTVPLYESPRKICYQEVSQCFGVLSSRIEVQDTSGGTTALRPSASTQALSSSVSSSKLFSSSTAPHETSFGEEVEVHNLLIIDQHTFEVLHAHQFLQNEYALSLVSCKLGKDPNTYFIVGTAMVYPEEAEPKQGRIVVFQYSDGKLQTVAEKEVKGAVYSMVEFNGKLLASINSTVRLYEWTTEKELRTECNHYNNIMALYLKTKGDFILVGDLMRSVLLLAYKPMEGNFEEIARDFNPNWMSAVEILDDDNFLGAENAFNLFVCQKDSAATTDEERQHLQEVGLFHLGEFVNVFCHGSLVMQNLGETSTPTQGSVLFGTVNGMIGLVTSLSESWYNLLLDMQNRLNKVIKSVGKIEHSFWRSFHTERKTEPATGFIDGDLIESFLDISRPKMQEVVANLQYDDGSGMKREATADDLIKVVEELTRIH
T5 sequence (P30291 whole entry): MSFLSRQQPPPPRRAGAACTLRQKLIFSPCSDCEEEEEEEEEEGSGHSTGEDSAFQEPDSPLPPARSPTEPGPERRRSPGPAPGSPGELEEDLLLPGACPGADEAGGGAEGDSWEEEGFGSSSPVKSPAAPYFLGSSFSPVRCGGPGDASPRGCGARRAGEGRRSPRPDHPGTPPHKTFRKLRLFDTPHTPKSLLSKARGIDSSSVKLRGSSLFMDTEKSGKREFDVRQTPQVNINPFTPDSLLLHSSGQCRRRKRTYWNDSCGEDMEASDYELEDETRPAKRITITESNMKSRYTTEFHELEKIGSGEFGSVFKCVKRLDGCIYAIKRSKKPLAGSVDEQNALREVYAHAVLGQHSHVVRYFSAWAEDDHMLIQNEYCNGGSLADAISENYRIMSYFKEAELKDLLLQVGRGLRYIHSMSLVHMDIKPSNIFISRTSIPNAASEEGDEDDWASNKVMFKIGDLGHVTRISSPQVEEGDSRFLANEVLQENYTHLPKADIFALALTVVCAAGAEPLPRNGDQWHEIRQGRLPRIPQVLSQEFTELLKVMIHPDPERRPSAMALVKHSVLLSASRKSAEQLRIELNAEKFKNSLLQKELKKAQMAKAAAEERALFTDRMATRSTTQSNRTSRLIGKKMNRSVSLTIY
T5 sequence (Q96SW2 whole entry): as the sequence (Q96SW2 whole entry) above
T5 sequence (Q16531 whole entry partner): as the sequence (Q16531 whole entry partner) above
T3 sequence (P48729 whole entry): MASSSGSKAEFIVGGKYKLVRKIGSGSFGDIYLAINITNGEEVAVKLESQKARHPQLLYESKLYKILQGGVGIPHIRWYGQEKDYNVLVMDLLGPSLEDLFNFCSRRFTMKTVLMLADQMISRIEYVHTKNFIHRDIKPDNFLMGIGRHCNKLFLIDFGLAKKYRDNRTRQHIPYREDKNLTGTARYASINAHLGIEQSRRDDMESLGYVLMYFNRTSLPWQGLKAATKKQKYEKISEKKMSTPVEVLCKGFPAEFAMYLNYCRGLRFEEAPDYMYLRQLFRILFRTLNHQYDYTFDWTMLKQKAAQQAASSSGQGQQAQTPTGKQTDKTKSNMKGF
T3 sequence (Q96SW2 whole entry): as the sequence (Q96SW2 whole entry) above
T3 sequence (Q16531 whole entry partner): as the sequence (Q16531 whole entry partner) above
T4 sequence (Q13422 whole entry): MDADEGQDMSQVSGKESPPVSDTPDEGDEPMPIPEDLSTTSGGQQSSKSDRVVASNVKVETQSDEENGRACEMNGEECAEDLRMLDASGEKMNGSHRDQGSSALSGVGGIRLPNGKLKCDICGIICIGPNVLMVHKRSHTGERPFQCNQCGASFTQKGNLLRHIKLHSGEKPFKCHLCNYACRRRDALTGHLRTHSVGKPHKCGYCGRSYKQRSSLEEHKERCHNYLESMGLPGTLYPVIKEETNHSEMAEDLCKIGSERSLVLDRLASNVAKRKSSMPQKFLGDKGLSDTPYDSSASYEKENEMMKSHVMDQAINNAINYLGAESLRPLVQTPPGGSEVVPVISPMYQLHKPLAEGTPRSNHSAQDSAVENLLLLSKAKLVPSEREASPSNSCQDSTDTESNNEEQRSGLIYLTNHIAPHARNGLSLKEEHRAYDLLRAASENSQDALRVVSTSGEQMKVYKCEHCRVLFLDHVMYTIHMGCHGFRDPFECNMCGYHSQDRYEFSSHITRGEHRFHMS
T4 sequence (Q96SW2 whole entry): as the sequence (Q96SW2 whole entry) above
T4 sequence (Q16531 whole entry partner): as the sequence (Q16531 whole entry partner) above
T2 sequence (Q9UKS7 whole entry): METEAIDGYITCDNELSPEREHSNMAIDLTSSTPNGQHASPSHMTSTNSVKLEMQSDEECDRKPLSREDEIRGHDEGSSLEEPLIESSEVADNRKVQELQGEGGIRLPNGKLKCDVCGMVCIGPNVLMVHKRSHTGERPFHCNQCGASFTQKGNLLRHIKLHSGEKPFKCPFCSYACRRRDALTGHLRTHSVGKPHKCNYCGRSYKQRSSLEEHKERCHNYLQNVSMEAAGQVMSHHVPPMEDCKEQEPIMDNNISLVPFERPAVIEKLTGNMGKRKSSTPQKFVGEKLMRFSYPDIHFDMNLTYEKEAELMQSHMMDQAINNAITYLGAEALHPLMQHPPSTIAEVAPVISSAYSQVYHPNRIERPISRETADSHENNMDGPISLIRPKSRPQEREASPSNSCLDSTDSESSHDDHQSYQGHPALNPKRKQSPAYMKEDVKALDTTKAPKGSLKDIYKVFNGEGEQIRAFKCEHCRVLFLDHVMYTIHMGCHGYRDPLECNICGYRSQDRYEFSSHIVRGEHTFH
T2 sequence (Q96SW2 whole entry): as the sequence (Q96SW2 whole entry) above
T2 sequence (Q16531 whole entry partner): as the sequence (Q16531 whole entry partner) above

Row | IC50 (MGC803) | IC50 (MM.1S) | SMILES | IKZF3 substrate protein remaining % (IKZF3) | IKZF2 substrate protein remaining % (IKZF2) | CK1α substrate protein remaining % (CK1α) | IKZF1 substrate protein remaining % (IKZF1) | IC50 (Jurkat) | WEE1 substrate protein remaining % (WEE1) | GSPT1 substrate protein remaining % (GSPT1)
1 | 100 to 300 nM | 10 to 50 nM | O=C1CCN(N2Cc3cc(CN4CCC(Nc5ccccc5-c5ccc(Cl)cc5)CC4)ccc3C2=O)C(=O)N1 [GT-04943, 1-(5-((4-((4'-chloro-[1,1'-biphenyl]-2-yl)amino)piperidin-1-yl)methyl)-1-oxoisoindolin-2-yl)dihydropyrimidine-2,4(1H,3H)-dione] | A ("A" is defined as 0% ≤ substrate protein remaining % ≤ 80%) | A ("A" is defined as 0% ≤ substrate protein remaining % ≤ 80%) | B ("B" is defined as 80%< substrate protein remaining %≤ 100%) | A ("A" is defined as 0% ≤ substrate protein remaining % ≤ 80%) | 100 to 300 nM | A ("A" is defined as 0% ≤ substrate protein remaining % ≤ 80%) | A ("A" is defined as 0% ≤ substrate protein remaining % ≤ 80%)
2 | 500 to 1000 nM | 100 to 300 nM | O=C1CCN(N2Cc3cc(CN4CCN(C(c5ccccc5)c5ccccn5)CC4)ccc3C2=O)C(=O)N1 (stereo not shown) [GT-04890, 1-(1-oxo-5-((4-(phenyl(pyridin-2-yl)methyl)piperazin-1-yl)methyl)isoindolin-2-yl)dihydropyrimidine-2,4(1H,3H)-dione] | B ("B" is defined as 80%< substrate protein remaining %≤ 100%) | A ("A" is defined as 0% ≤ substrate protein remaining % ≤ 80%) | B ("B" is defined as 80%< substrate protein remaining %≤ 100%) | A ("A" is defined as 0% ≤ substrate protein remaining % ≤ 80%) | – | B ("B" is defined as 80%< substrate protein remaining %≤ 100%) | A ("A" is defined as 0% ≤ substrate protein remaining % ≤ 80%)
3 | 500 to 1000 nM | 100 to 300 nM | O=C1CCN(N2Cc3cc(CN4CCN(c5cccc(Cl)c5Cl)CC4)ccc3C2=O)C(=O)N1 [GT-04853, 1-(5-((4-(2,3-dichlorophenyl)piperazin-1-yl)methyl)-1-oxoisoindolin-2-yl)dihydropyrimidine-2,4(1H,3H)-dione] | B ("B" is defined as 80%< substrate protein remaining %≤ 100%) | A ("A" is defined as 0% ≤ substrate protein remaining % ≤ 80%) | B ("B" is defined as 80%< substrate protein remaining %≤ 100%) | A ("A" is defined as 0% ≤ substrate protein remaining % ≤ 80%) | – | A ("A" is defined as 0% ≤ substrate protein remaining % ≤ 80%) | A ("A" is defined as 0% ≤ substrate protein remaining % ≤ 80%)

Row | SMILES | IC50 (MGC803) | IC50 (MM.1S) | IKZF3 substrate protein remaining % (IKZF3) | IKZF2 substrate protein remaining % (IKZF2) | CK1α substrate protein remaining % (CK1α) | IKZF1 substrate protein remaining % (IKZF1) | IC50 (Jurkat) | WEE1 substrate protein remaining % (WEE1) | GSPT1 substrate protein remaining % (GSPT1)
4 | Cc1cc(C2=CCN(Cc3ccc4c(c3)CN(N3CCC(=O)NC3=O)C4=O)CC2)cs1 [GT-04873, 1-(5-((4-(5-methylthiophen-3-yl)-3,6-dihydropyridin-1(2H)-yl)methyl)-1-oxoisoindolin-2-yl)dihydropyrimidine-2,4(1H,3H)-dione] | 100 to 300 nM | 50 to 100 nM | A ("A" is defined as 0% ≤ substrate protein remaining % ≤ 80%) | B ("B" is defined as 80%< substrate protein remaining %≤ 100%) | B ("B" is defined as 80%< substrate protein remaining %≤ 100%) | A ("A" is defined as 0% ≤ substrate protein remaining % ≤ 80%) | 100 to 300 nM | A ("A" is defined as 0% ≤ substrate protein remaining % ≤ 80%) | A ("A" is defined as 0% ≤ substrate protein remaining % ≤ 80%)
